From the supplement of paper PMC11061612

Columns and labels:
AZD4320 = compound: CN(CC[C@H](CSC1=CC=CC=C1)NC2=C(C=C(C=C2)S(=O)(=O)NC(=O)C3=CC=C(C=C3)N4CCC(CC4)[C@H](C5=CC=CC=C5C6=CC=C(C=C6)Cl)O)S(=O)(=O)C(F)(F)F)CCO [AZD4320]; conditions: max 1 µM
Method in brief: (§1)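 Cancer cell lines were plated in 1536-well plates in 7.5 μl of DMEM/F12 or RPMI with 10% FBS and kept 24 hours at 37°C and 5% CO2 before 72 hours of dosing, with final DMSO typically 0.2%. CellTiter-Glo 2.0 luminescence measured viability, scaled between blank-well and DMSO-well means. Dose responses were fitted to a two-parameter logistic curve with a non-linear mixed effects model. This fit gives the single-agent IC50.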

Doxorubicin = compound: COc1cccc2c1C(=O)c1c(O)c3c(c(O)c1C2=O)C[C@@](O)(C(=O)CO)C[C@@H]3O[C@H]1C[C@H](N)[C@H](O)[C@H](C)O1 [Doxorubicin]; conditions: max 1 µM
Method in brief: as §1

Gefitinib = compound: COc1cc2ncnc(Nc3ccc(F)c(Cl)c3)c2cc1OCCCN1CCOCC1 [Gefitinib]; conditions: max 10 µM
Method in brief: as §1

Venetoclax = compound: CC1(C)CCC(CN2CCN(c3ccc(C(=O)NS(=O)(=O)c4ccc(NCC5CCOCC5)c([N+](=O)[O-])c4)c(Oc4cnc5[nH]ccc5c4)c3)CC2)=C(c2ccc(Cl)cc2)C1 [Venetoclax]; conditions: max 1 µM
Method in brief: as §1

Dasatinib = compound: CC1=C(C(=CC=C1)Cl)NC(=O)C2=CN=C(S2)NC3=CC(=NC(=N3)C)N4CCN(CC4)CCO [Dasatinib]; conditions: max 2 µM
Method in brief: as §1

Palbociclib = compound: CC(=O)c1c(C)c2cnc(Nc3ccc(N4CCNCC4)cn3)nc2n(C2CCCC2)c1=O [Palbociclib]; conditions: max 10 µM
Method in brief: as §1

AZD5363 = compound: C1CN(CCC1(C(=O)N[C@@H](CCO)C2=CC=C(C=C2)Cl)N)C3=NC=NC4=C3C=CN4 [AZD5363]; conditions: max 10 µM
Method in brief: as §1

Olaparib = compound: O=C(c1cc(Cc2n[nH]c(=O)c3ccccc23)ccc1F)N1CCN(C(=O)C2CC2)CC1 [Olaparib]; conditions: max 10 µM
Method in brief: as §1

Taselisib = compound: Cc1nc(-c2cn3c(n2)-c2ccc(-c4cnn(C(C)(C)C(N)=O)c4)cc2OCC3)n(C(C)C)n1 [Taselisib]; conditions: max 10 µM
Method in brief: as §1

Paclitaxel = compound: CC(=O)O[C@H]1C(=O)[C@@]2(C)[C@H]([C@H](OC(=O)c3ccccc3)[C@]3(O)C[C@H](OC(=O)[C@H](O)[C@@H](NC(=O)c4ccccc4)c4ccccc4)C(C)=C1C3(C)C)[C@]1(OC(C)=O)CO[C@@H]1C[C@@H]2O [Paclitaxel]; conditions: max 3 µM
Method in brief: as §1

AZD0156 = compound: CN(C)CCCOc1ccc(-c2ccc3ncc4c(c3c2)n(C2CCOCC2)c(=O)n4C)cn1 [AZD0156]; conditions: max 3 µM
Method in brief: as §1

AZD5991 = compound: Cc1c2c(nn1C)CSCc1cc(n(C)n1)CSc1cc(c3ccccc3c1)OCCCc1c(C(=O)O)n(C)c3c-2c(Cl)ccc13 [AZD5991]; conditions: max 1 µM
Method in brief: as §1

Lapatinib = compound: CS(=O)(=O)CCNCc1ccc(-c2ccc3ncnc(Nc4ccc(OCc5cccc(F)c5)c(Cl)c4)c3c2)o1 [Lapatinib]; conditions: max 10 µM
Method in brief: as §1

AZD6738 = compound: C[C@@H]1COCCN1C2=NC(=NC(=C2)C3(CC3)[S@](=N)(=O)C)C4=C5C=CNC5=NC=C4 [AZD6738]; conditions: max 10 µM
Method in brief: as §1

AZD5153 = compound: COc1nnc2ccc(N3CCC(c4ccc(OCCN5CCN(C)C(=O)[C@H]5C)cc4)CC3)nn12 [AZD5153]; conditions: max 1 µM
Method in brief: as §1

Carboplatin = compound: C1CC(C1)(C(=O)[O-])C(=O)[O-].N.N.[Pt+2] [Carboplatin]; conditions: max 10 µM
Method in brief: as §1

MK-2206 = compound: NC1(c2ccc(-c3nc4ccn5c(=O)[nH]nc5c4cc3-c3ccccc3)cc2)CCC1 [MK-2206]; conditions: max 10 µM
Method in brief: as §1

Etoposide = compound: COc1cc([C@@H]2c3cc4c(cc3[C@@H](O[C@@H]3O[C@@H]5CO[C@@H](C)O[C@H]5[C@H](O)[C@H]3O)[C@H]3COC(=O)[C@H]23)OCO4)cc(OC)c1O [Etoposide]; conditions: max 10 µM
Method in brief: as §1

Trametinib = compound: CC(=O)Nc1cccc(-n2c(=O)n(C3CC3)c(=O)c3c(Nc4ccc(I)cc4F)n(C)c(=O)c(C)c32)c1 [Trametinib]; conditions: max 1 µM
Method in brief: as §1

[1] = compound: O=C(Nc1ccc2[nH]nc(-c3ccncc3)c2c1)[C@@H]1CCN(CC(=O)N2CCN(c3ccc(-c4ncccn4)cc3)CC2)C1; conditions: max 5 µM
Method in brief: as §1

Crizotinib = compound: C[C@@H](Oc1cc(-c2cnn(C3CCNCC3)c2)cnc1N)c1c(Cl)ccc(F)c1Cl [Crizotinib]; conditions: max 10 µM
Method in brief: as §1

Savolitinib = compound: C[C@@H](c1ccc2nccn2c1)n1nnc2ncc(-c3cnn(C)c3)nc21 [Savolitinib]; conditions: max 1 µM
Method in brief: as §1

AZD7648 = compound: Cc1cc2ncnn2cc1Nc1ncc2c(n1)n(C1CCOCC1)c(=O)n2C [AZD7648]; conditions: max 10 µM
Method in brief: as §1

AZD8186 = compound: C[C@@H](Nc1cc(F)cc(F)c1)c1cc(C(=O)N(C)C)cc2c(=O)cc(N3CCOCC3)oc12 [AZD8186]; conditions: max 10 µM
Method in brief: as §1

Prexasertib = compound: COc1cccc(OCCCN)c1-c1cc(Nc2cnc(C#N)cn2)n[nH]1 [Prexasertib]; conditions: max 1 µM
Method in brief: as §1

Alisertib = compound: COc1cc(Nc2ncc3c(n2)-c2ccc(Cl)cc2C(c2c(F)cccc2OC)=NC3)ccc1C(=O)O [Alisertib]; conditions: max 10 µM
Method in brief: as §1

5-Fluorouracil = compound: O=c1[nH]cc(F)c(=O)[nH]1 [5-Fluorouracil]; conditions: max 20 µM
Method in brief: as §1

AZD1390 = compound: CC(C)n1c(=O)n(C)c2cnc3cc(F)c(-c4ccc(OCCCN5CCCCC5)nc4)cc3c21 [AZD1390]; conditions: max 0.3 µM
Method in brief: as §1

AZD1775 = compound: C=CCn1c(=O)c2cnc(Nc3ccc(N4CCN(C)CC4)cc3)nc2n1-c1cccc(C(C)(C)O)n1 [AZD1775]; conditions: max 3 µM
Method in brief: as §1

SN-38 = compound: CCc1c2c(nc3ccc(O)cc13)-c1cc3c(c(=O)n1C2)COC(=O)[C@]3(O)CC [SN-38]; conditions: max 0.3 µM
Method in brief: as §1

AZD2811 = compound: CCN(CCO)CCCOc1ccc2c(Nc3cc(CC(=O)Nc4cccc(F)c4)[nH]n3)ncnc2c1 [AZD2811]; conditions: max 1 µM
Method in brief: as §1

SRA737 = compound: N#Cc1cnc(Nc2cc(NC[C@H]3CNCCO3)c(C(F)(F)F)cn2)cn1 [SRA737]; conditions: max 10 µM
Method in brief: as §1

Gemcitabine = compound: Nc1ccn([C@@H]2O[C@H](CO)[C@@H](O)C2(F)F)c(=O)n1 [Gemcitabine]; conditions: max 0.3 µM
Method in brief: as §1

Selumetinib = compound: Cn1cnc2c(F)c(Nc3ccc(Br)cc3Cl)c(C(=O)NOCCO)cc21 [Selumetinib]; conditions: max 10 µM
Method in brief: as §1

SG3199 = compound: CC1=CN2[C@@H](C1)C=NC3=CC(=C(C=C3C2=O)OC)OCCCCCOC4=C(C=C5C(=C4)N=C[C@@H]6CC(=CN6C5=O)C)OC [SG3199]; conditions: max 0.001 µM
Method in brief: as §1

Cell Line	IC50, cell viability 72 h (AZD4320) [nM]	IC50, cell viability 72 h (Doxorubicin) [nM]	IC50, cell viability 72 h (Gefitinib) [nM]	IC50, cell viability 72 h (Venetoclax) [nM]	IC50, cell viability 72 h (Dasatinib) [nM]	IC50, cell viability 72 h (Palbociclib) [nM]	IC50, cell viability 72 h (AZD5363) [nM]	IC50, cell viability 72 h (Olaparib) [nM]	IC50, cell viability 72 h (Taselisib) [nM]	IC50, cell viability 72 h (Paclitaxel) [nM]	IC50, cell viability 72 h (AZD0156) [nM]	IC50, cell viability 72 h (AZD5991) [nM]	IC50, cell viability 72 h (Lapatinib) [nM]	IC50, cell viability 72 h (AZD6738) [nM]	IC50, cell viability 72 h (AZD5153) [nM]	IC50, cell viability 72 h (Carboplatin) [nM]	IC50, cell viability 72 h (MK-2206) [nM]	IC50, cell viability 72 h (Etoposide) [nM]	IC50, cell viability 72 h (Trametinib) [nM]	IC50, cell viability 72 h [1] [nM]	IC50, cell viability 72 h (Crizotinib) [nM]	IC50, cell viability 72 h (Savolitinib) [nM]	IC50, cell viability 72 h (AZD7648) [nM]	IC50, cell viability 72 h (AZD8186) [nM]	IC50, cell viability 72 h (Prexasertib) [nM]	IC50, cell viability 72 h (Alisertib) [nM]	IC50, cell viability 72 h (5-Fluorouracil) [nM]	IC50, cell viability 72 h (AZD1390) [nM]	IC50, cell viability 72 h (AZD1775) [nM]	IC50, cell viability 72 h (SN-38) [nM]	IC50, cell viability 72 h (AZD2811) [nM]	IC50, cell viability 72 h (SRA737) [nM]	IC50, cell viability 72 h (Gemcitabine) [nM]	IC50, cell viability 72 h (Selumetinib) [nM]	IC50, cell viability 72 h (SG3199) [nM]
G-292-Clone-A141B1 (Osteosarcoma)	> 1000	> 1000	> 10000	> 1000	> 2000	> 10000	> 10000	> 10000	1160	> 3000	> 3000	> 1000	> 10000	> 10000	> 1000	> 10000	> 10000	> 10000	> 1000	> 5000	> 10000	> 1000	> 10000	> 10000	> 1000	> 10000	> 20000	> 300	> 3000	> 300	> 1000	> 10000	> 300	> 10000	> 1
NALM-6 (B-Lymphoblastic Leukemia)	146	106	> 10000	380	1140	1410	1370	> 10000	293	5.65	> 3000	> 1000	8220	1050	31.9	> 10000	816	302	> 1000	> 5000	1170	> 1000	> 10000	1220	11.7	238	> 20000	> 300	509	5.89	57	2310	3.63	> 10000	> 1
NCI-H2595 (Mesothelioma)	> 1000	> 1000	> 10000	> 1000	> 2000	> 10000	> 10000	> 10000	> 10000	1280	> 3000	> 1000	> 10000	> 10000	> 1000	> 10000	> 10000	> 10000	> 1000	> 5000	> 10000	> 1000	> 10000	> 10000	> 1000	> 10000	> 20000	> 300	> 3000	> 300	> 1000	> 10000	> 300	> 10000	> 1
IHH-4 (Thyroid Gland Carcinoma)	> 1000	275	> 10000	> 1000	961	> 10000	> 10000	> 10000	> 10000	7	> 3000	> 1000	> 10000	4340	680	> 10000	> 10000	1670	85.3	1220	7340	> 1000	> 10000	> 10000	99.4	5970	3430	> 300	414	5.41	> 1000	> 10000	8.74	4470	> 1
